Key:
Assay type in all cases: in vivo
[1] = tested on: Monochoria vaginalis; experiment: Test Example 1: herbicidal activity, application before weed generation in submerged conditions (symbol C); settings: application herbicide amount 320 g/ha
Procedure, shortened: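 0–5 visual score, 3 wk post-application. Submerged pots, alluvial soil, water 4 cm; seeds sown mixed, rice at 2.5 leaves transplanted. Emulsion diluted to predetermined dose, applied to water surface at sowing. 25–30 °C greenhouse.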

[2] = tested on: Echinochloa crus-galli var. crus-galli; experiment: Test Example 3: herbicidal effect by foliage application, Wagner pot (symbol H); settings: application herbicide amount 320 g/ha, Table 24
Procedure, shortened: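 Steps: fill pot with alluvial soil; add water to 0.1–0.5 cm depth; sow weed and rice seed; grow 14 days at 25–30 °C; spray diluted emulsion over the leaves; rate effect after 3 weeks.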

[3] = tested on: directly sowed rice plant; experiment: Test Example 3: effect on crop by foliage application, Wagner pot (symbol b); settings: application herbicide amount 320 g/ha, Table 24
Procedure, shortened: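 Wagner pot (1/10000 are), alluvial soil, submerged 0.1–0.5 cm; sown E. crus-galli var. crus-galli, L. chinensis, C. difformis, rice; greenhouse 25–30 °C.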

[4] = tested on: Alopecurus myosuroides; experiment: Test Example 4: herbicidal effect by soil treatment (symbol J); settings: application herbicide amount 320 g/ha
Procedure, shortened: (§1)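 Seeds were sown in sterilized diluvial soil, covered with about 1.5 cm of soil, and the soil surface was sprayed with a water-diluted emulsion of the compound at a predetermined rate. Plants grew in a greenhouse at 25° C. to 30° C.; effects were scored visually 3 weeks after application.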

[5] = tested on: Lolium multiflorum Lam.; experiment: Test Example 4: herbicidal effect by soil treatment (symbol K); settings: application herbicide amount 320 g/ha
Procedure, shortened: as §1

[6] = tested on: Apera spica-venti; experiment: Test Example 4: herbicidal effect by soil treatment (symbol L); settings: application herbicide amount 320 g/ha
Procedure, shortened: as §1

[7] = tested on: Amaranthus retroflexus; experiment: Test Example 4: herbicidal effect by soil treatment (symbol N); settings: application herbicide amount 320 g/ha
Procedure, shortened: as §1

[8] = tested on: Stellaria media; experiment: Test Example 4: herbicidal effect by soil treatment (symbol P); settings: application herbicide amount 320 g/ha
Procedure, shortened: as §1

[9] = tested on: corn; experiment: Test Example 4: effect on crop by soil treatment (symbol c); settings: application herbicide amount 320 g/ha
Procedure, shortened: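 Greenhouse culture at 25° C. to 30° C. followed sowing of seed in spots on sterilized diluvial soil with a soil cover close to 1.5 cm thick.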

[10] = tested on: Setaria viridis; experiment: Test Example 5: herbicidal effect by foliage application, plastic box (symbol G); settings: 320 g/ha, 3 weeks after application
Procedure, shortened: (§2)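 Visual herbicidal score, taken three weeks post-application, of seedlings sprayed on the foliage with water-diluted emulsion at a predetermined amount; plants were 14 days old, greenhouse-raised at 25° C. to 30° C.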

[11] = tested on: Echinochloa crus-galli var. crus-galli; experiment: Test Example 5: herbicidal effect by foliage application, plastic box (symbol H); settings: 320 g/ha, 3 weeks after application
Procedure, shortened: as §2

[12] = tested on: Abutilon theophrasti; experiment: Test Example 5: herbicidal effect by foliage application, plastic box (symbol M); settings: 320 g/ha, 3 weeks after application
Procedure, shortened: as §2

[13] = tested on: Chenopodium album; experiment: Test Example 5: herbicidal effect by foliage application, plastic box (symbol O); settings: 320 g/ha, 3 weeks after application
Procedure, shortened: as §2

[14] = tested on: Veronica persica; experiment: Test Example 5: herbicidal effect by foliage application, plastic box (symbol R); settings: 320 g/ha, 3 weeks after application
Procedure, shortened: as §2

[15] = tested on: soybean; experiment: Test Example 5: effect on crop by foliage application, plastic box (symbol d); settings: 320 g/ha, 3 weeks after application
Procedure, shortened: (§3)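 In a plastic box 7 cm deep filled with sterilized diluvial soil, seeds of crops and weeds such as Digitaria ciliaris, Avena fatua and Amaranthus retroflexus are sown in spots and covered with about 1.5 cm of soil before greenhouse growth at 25–30° C.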

[16] = tested on: wheat; experiment: Test Example 5: effect on crop by foliage application, plastic box (symbol e); settings: 320 g/ha, 3 weeks after application
Procedure, shortened: as §3

Row | Structure (SMILES) | Herbicidal effect grade, C: Monochoria vaginalis [1] | H (Echinochloa crus-galli var. crus-galli) herbicidal effect grade [2] | b (directly sowed rice plant) effect on crop grade [3] | Herbicidal effect grade, J: Alopecurus myosuroides [4] | Herbicidal effect grade, K: Lolium multiflorum Lam. [5] | Herbicidal effect grade, L: Apera spica-venti [6] | Herbicidal effect grade, N: Amaranthus retroflexus [7] | Herbicidal effect grade, P: Stellaria media [8] | Effect on crop grade, c: corn [9] | G: Setaria viridis, herbicidal effect grade [10] | H: Echinochloa crus-galli var. crus-galli, herbicidal effect grade [11] | M: Abutilon theophrasti, herbicidal effect grade [12] | O: Chenopodium album, herbicidal effect grade [13] | R: Veronica persica, herbicidal effect grade [14] | d: soybean, effect on crop grade [15] | e: wheat, effect on crop grade [16]
1 | CC#Cc1cc(C)c(C2=C(OC(=O)COc3ccccc3)CC(CC(=NOC)C(C)C)C2=O)c(C)c1 (stereo not drawn) [9-003] | 1 (Herbicidal ratio of 5% or higher and lower than 20%) | 5 (Herbicidal ratio of 90% or more (almost completely withered)) | 5 (Herbicidal ratio of 90% or more (almost completely withered)) | 5 (Herbicidal ratio of 90% or more (almost completely withered)) | 5 (Herbicidal ratio of 90% or more (almost completely withered)) | 5 (Herbicidal ratio of 90% or more (almost completely withered)) | 0 (Herbicidal ratio of 5% or lower (almost no effect)) | 0 (Herbicidal ratio of 5% or lower (almost no effect)) | 5 (Herbicidal ratio of 90% or more (almost completely withered)) | 5 (Herbicidal ratio of 90% or more (almost completely withered)) | 5 (Herbicidal ratio of 90% or more (almost completely withered)) | 4 (Herbicidal ratio of 70% or higher and lower than 90%) | 3 (Herbicidal ratio of 40% or higher and lower than 70%) | 4 (Herbicidal ratio of 70% or higher and lower than 90%) | 4 (Herbicidal ratio of 70% or higher and lower than 90%) | 4 (Herbicidal ratio of 70% or higher and lower than 90%)
2 | CON=C(CC1CC(O)=C(c2c(C)cc(-n3cc(Cl)cn3)cc2C)C1=O)C(C)C (stereo not drawn) [9-004] | 0 (Herbicidal ratio of 5% or lower (almost no effect)) | 5 (Herbicidal ratio of 90% or more (almost completely withered)) | 5 (Herbicidal ratio of 90% or more (almost completely withered)) | 5 (Herbicidal ratio of 90% or more (almost completely withered)) | 4 (Herbicidal ratio of 70% or higher and lower than 90%) | 5 (Herbicidal ratio of 90% or more (almost completely withered)) | 0 (Herbicidal ratio of 5% or lower (almost no effect)) | 0 (Herbicidal ratio of 5% or lower (almost no effect)) | 0 (Herbicidal ratio of 5% or lower (almost no effect)) | 5 (Herbicidal ratio of 90% or more (almost completely withered)) | 5 (Herbicidal ratio of 90% or more (almost completely withered)) | 0 (Herbicidal ratio of 5% or lower (almost no effect)) | 1 (Herbicidal ratio of 5% or higher and lower than 20%) | 0 (Herbicidal ratio of 5% or lower (almost no effect)) | 0 (Herbicidal ratio of 5% or lower (almost no effect)) | 3 (Herbicidal ratio of 40% or higher and lower than 70%)
3 | CON=C(CC1CC(O)=C(c2c(C)cc(C#C[Si](C)(C)C)cc2C)C1=O)C(C)C (stereo not drawn) [9-005] | 0 (Herbicidal ratio of 5% or lower (almost no effect)) | 5 (Herbicidal ratio of 90% or more (almost completely withered)) | 4 (Herbicidal ratio of 70% or higher and lower than 90%) | 1 (Herbicidal ratio of 5% or higher and lower than 20%) | 4 (Herbicidal ratio of 70% or higher and lower than 90%) | 1 (Herbicidal ratio of 5% or higher and lower than 20%) | 0 (Herbicidal ratio of 5% or lower (almost no effect)) | 0 (Herbicidal ratio of 5% or lower (almost no effect)) | 0 (Herbicidal ratio of 5% or lower (almost no effect)) | 4 (Herbicidal ratio of 70% or higher and lower than 90%) | 5 (Herbicidal ratio of 90% or more (almost completely withered)) | 0 (Herbicidal ratio of 5% or lower (almost no effect)) | 0 (Herbicidal ratio of 5% or lower (almost no effect)) | 0 (Herbicidal ratio of 5% or lower (almost no effect)) | 0 (Herbicidal ratio of 5% or lower (almost no effect)) | 0 (Herbicidal ratio of 5% or lower (almost no effect))
